Data reported in patent US20070140959A1, “Method of preparing rhenium-tricarbonyl complex and its precursor” (priority 2005, published 2007).

Assays:
[1] = type: in vitro ADME, human
Experimental: The ^188Re-tricarbonyl histidine complex prepared in Embodiment 2 was dissolved in physiological saline to prepare 37 MBq/ml of a test solution. Of this solution, 25 μl of the solution was added to 475 μl of human plasma (sigma) and then cultured at 37° C. for 24 hours. After the lapse of 0.5, 1, 2, 4 and 24 hours, the fraction of solution was subjected to TLC measurement. As a development solvent, a solvent mixture comprising methanol and conc. hydrochloric acid mixed at a 99:1 ratio was used.
When the fraction of solution was developed, the labeled complex was shown in the developed portion, and the complex reacted with the plasma protein was shown in the zero point, which were confirmed through HPLC. The HPLC measurement was conducted in the same manner as in Experimental Example 2. In addition, the plasma protein binding was measured using an ITLC isotope scanner.

[2] = Stability of 188Re(I)-tricarbonyl precursor over time (HPLC); type: physicochemical; settings: for 3 hours, then began to decay
Experimental: The HPLC measurement was conducted in order to separate the ^188Re (I)-tricarbonyl precursor synthesized in Embodiment 1.
The HPLC measurement was carried out with a WATERS system provided with a radiometric detector using methanol (hereinafter, referred to as ‘solvent A’) and 0.05 M triethylammoniumphosphate buffer (TEAP, pH 2.25, hereinafter referred to as ‘solvent B’) using two pumps each equipped with a reverse phase Xterra™ RP18 5 μm column (4.6×250 mm, Waters, Ireland).
The solvent conditions for HPLC were as follows: in the range of 0 to 5 minutes, 100% solvent A began to flow and was then converted into 100% solvent B; in the range of 5 to 8 minutes, 100% solvent B began to flow and was then converted into 25% solvent A and 75% solvent B; in the range of 8 to 11 minutes, 25% solvent A and 75% solvent B were converted into 34% solvent A and 66% solvent B; in the range of 11 to 22 minutes, 34% solvent A and 66% solvent B were converted into 100% solvent A; and in the range of 22 to 24 minutes, 100% solvent A was converted into 100% solvent B. The flow rate of solvent was maintained at 1 ml/min for the entire time. In addition, in order to rapidly bring the column to a state of equilibrium, during the next 5 min, the solvent was supplied at 2 ml/min for 2 minnutes and then at the former solvent flow rate for 3 min. […]

Row | plasma stability (in words) [1] | Substance | fraction of precursor stable [2]
1 | high plasma stability | ^188Re (I)-tricarbonyl histidine complex [^188Re-tricarbonyl histidine complex] | –
2 | – | ^188Re-tricarbonyl precursor [^188Re (I)-tricarbonyl precursor] | ≥ 95%
